Test: Effect on blood triglyceride in rats after repeated oral administration
Type: in vivo
Details: male Wistar rats; orally once a day for 21 days; pitavastatin calcium 10 mg/kg and/or EPA-E 1000 mg/kg; blood taken after fasting for 18 hours since final administration; FIG. 1
Procedure: Male Wistar rats aged 6 weeks (Japan Medical Science Experimental Animal Co., Ltd.) were tested. They were fed in a room maintained in a bright and dark cycle (bright duration by a room light: 7:00 a.m. to 7:00 p.m.) at a temperature of 23±3° C. and a humidity of 55±15% through an experimental duration and allowed to freely take a chow (CE-2; Nippon Clear Co., Ltd.) and city water. Pitavastatin calcium was suspended in a 0.5 mass % aqueous solution of sodium carboxymethyl cellulose (Iwai Kagaku Yakuhin Co., Ltd.) and controlled so that a dose was 2 ml/kg. Pitavastatin calcium contained 9.43 mass % of water, and therefore an amount as 1.1 mass time much as the dose was weighed to correct the practical dose. The suspension was refrigerated (4° C.) in a shaded bottle, and it was prepared every 7 days. EPA-E was taken from Epadel capsule (Dainippon Seiyaku Co., Ltd.) in use, suspended in refined water and controlled so that a dose was 2 ml/kg. […] The differences of multiple groups between the control group and the drug-administered groups were analyzed using Dunnett's multiple comparison test, preceded by Bartlett's analysis of variance.

O=C([O-])C[C@H](O)C[C@H](O)/C=C/c1c(C2CC2)nc2ccccc2c1-c1ccc(F)cc1.O=C([O-])C[C@H](O)C[C@H](O)/C=C/c1c(C2CC2)nc2ccccc2c1-c1ccc(F)cc1.[Ca+2] [pitavastatin calcium]
triglyceride concentration in blood: tended to be lowered
